The values below come from patent publication US7563882B2, “Polynucleotides encoding antibodies that bind to the C35 polypeptide” (University of Rochester, priority 2002, dated 2009).

One experiment deals with HLA-B*0702 (Homo sapiens, UniProt P01889). Description: Fluorescence polarization competition for MHC-peptide binding. As to conditions: soluble HLA-B*0702, fluorescent labeled binding standard. The method, then:
A similar analysis was conducted with C35 peptides that bind to soluble HLA-B*0702 employing a fluorescent labeled HLA-B*0702 binding standard and suitable relevant and irrelevant peptides to calibrate inhibition of binding by test peptides. Note that these inhibition values are sensitive to the choice and concentration of both MHC molecule and specific fluorescent peptides under the same assay conditions.
A general note: Polarisation of emitted light reports the rotation of a fluorescent probe.

The next experiment relates to B/C.N cells. As to the kind of experiment: 51Cr release (CML), sensitization of B/C.N to lysis by tumor specific CTL. The experiment is classed as cell-based, mouse. The conditions noted are these: for sensitization of B/C.N cells to lysis by tumor-specific CTL: 4 hours; for peptide concentration to sensitize targets to lysis by CTL: B/C.N targets.
Another experiment has as its system T cell line 4. The format is cell-based, human.
Another experiment concerns EBV-B target cells. As to the kind of experiment: C35 peptide mediated T cell lysis of peptide pulsed EBV-B cells (Table 10). The format is cell-based, human.
In another experiment the target is T1, hC35 protein (Homo sapiens, UniProt Q9BRT3).
T1 construct: made in house; host or cells: E. coli
T1 sequence (Q9BRT3 1-115): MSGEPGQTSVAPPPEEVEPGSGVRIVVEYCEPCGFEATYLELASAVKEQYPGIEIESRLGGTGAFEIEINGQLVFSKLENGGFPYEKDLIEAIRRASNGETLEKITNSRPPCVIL
Description: Western Blot immunodetection with hybridoma supernatants. The format is binding. As to conditions: 100 ng purified recombinant C35 protein or control β-galactosidase per lane. On the procedure:
Western Blot Immunodetection was performed with supernatants from selected hybridoma clones. […] In these experiments, 100 ng of purified recombinant C35 protein or control β-galactosidase protein was loaded in each lane of an 18% SDS polyacrylamide gel. Gels were transferred to PVDF membrane, as is well known to those practiced in the art. Membranes were blocked with Tris buffered saline (TBS), including Tween-20 and 5% non-fat dry milk. Each blot was incubated with various dilutions of hybridoma supernatants as the primary antibody, followed by incubation with a secondary antibody, goat anti-mouse IgG conjugated to HRP, and detected with the chemiluminescent substrate, ECL. Similar results were obtained with 11B10 (not shown).
On the technique in general: In western blotting, separated proteins are transferred to a membrane and probed.

The next experiment has as its target T2, C35 (Homo sapiens, UniProt Q9BRT3).
T2 construct: from tissue; host or cells: paraffin sections of primary human breast tumor (invasive breast adenocarcinoma, patient 01A6) and normal breast tissue
T2 sequence (Q9BRT3 1-115): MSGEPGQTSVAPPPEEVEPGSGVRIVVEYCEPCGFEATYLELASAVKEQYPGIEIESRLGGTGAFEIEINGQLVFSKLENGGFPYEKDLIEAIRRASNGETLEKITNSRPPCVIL
As to the kind of experiment: Immunohistochemical staining of primary breast tumor sections. The experiment is classed as binding. The conditions noted are these: paraffin sections, affinity purified antibody. The source says:
Antibody was affinity purified from 1F2 hybridoma supernatant. Paraffin-embedded slides were deparaffinized with xylene and rehydrated through graded alcohols. Target retrieval was achieved through steam and high pH treatment. […] Slides were counterstained with hematoxylin, dehydrated with EtOH/xylene, and coverslipped.

By % Inhibition is commonly meant the share of the control response that was lost under treatment.

ITNSRPPCV [105-113]: in the experiment with HLA-B*0702, the “% Inhibition” value amounted to 45.2%.

On to NSRPPCVIL [N107 to L115], for which the “% Inhibition” value in the experiment with HLA-B*0702 worked out at 68.2%.

Turning to “L348-56 (I54): peptide of ribosomal protein L3, positions 48-56 with Ile 54; target epitope of tumor-specific CTL (GYKAGMIHI)”, in the experiment on B/C.N cells, the “sensitization of B/C.N cells to lysis by tumor-specific CTL” value (shortened to “sensitization of B/C.N cells to lysis”) is given as “sensitized B/C.N to lysis” and the “peptide concentration to sensitize targets to lysis by CTL” value was at most 0.01 µM.

Take KLENGGFPY [peptide 77-85]: the GM-CSF stimulation result with T cell line 4 is given as “greatest stimulation”. Moreover, in the experiment with EBV-B target cells (T cell clone #46, donor (A2, A3; B18, B44), target pulsed with peptide), the “% Lysis EBV-B cell Target” value came out at 97.1%. Also, the “lytic activity on EBV-B cells pulsed with peptide” value in the experiment on EBV-B target cells (T cell clones from donor with A2, A3, B18, B44 HLA haplotypes) is 97.1%.

“L348-56 (T54): wild type ribosomal protein L3 peptide 48-56 with Thr 54 (GYKAGMTHI) [reference compound]”: in the experiment with B/C.N cells, the “sensitization of B/C.N cells to lysis” value is “did not” and the peptide concentration to sensitize targets to lysis by CTL was above 100 µM.

Regarding “L345-54 (I54): peptide of ribosomal protein L3, positions 45-54 with Ile 54 (AFLGYKAGMI)”, the “sensitization of B/C.N cells to lysis” value in the experiment on B/C.N cells was “did not”.

B1: 3E10: C35-specific monoclonal antibody; Kappa and IgG1 V-genes SEQ ID NOs:150 and 151 (antibody, V domains shown)
VH: MMVLSLLYLLTALPGILSEVQLQESGPSLVKPSQTLSLTCSVTGDSITSGYWNWIRKFPGNKLEYVGYISYSGGTYYNPSLKSRISITRDTSKNHYYLQLNSVTTEDTATYYCARGAYYGGAFFPYFDVWGAGTTVTVSS
VL: MRFQVQVLGLLLLWISGAHCDVQITQSPSFLAASPGETITINCRASKYISKHLVWYQEKPGETKKLLIYSGSTLQSGLPSRFSGSGSGTDFTLTISSLEPEDFAMYYCQQHNEYPLTFGAGTKLELK
modifications: cDNA of 3E10 V-genes (IgG1); cDNA of 3E10 V-genes (Kappa)
For the molecule B1, the “reactivity with hC35 protein in Western Blot” value in the experiment with hC35 protein is “reacted specifically”.

B2: 1F2: C35-specific monoclonal antibody; Kappa and IgG1 V-genes SEQ ID NOs:148 and 149 (antibody, V domains shown)
VH: MKVLSLLYLLTAIPGILSDVQLQESGPGLVKPSQSLSLTCSVTGYSITSGYFWNWIRQFPGNKLEWMGYISYDGSNNSNPSLKNRISFTRDTSKNQFFLKFNSVTTDDSAAYYCTRGTTGFAYWGQGTLVTVSA
VL: MDFQVQIFSFLLISASVRMSRGQIVLTQSPAIMSASPGEKVTISCSASSSVSYMNWYQQKPGSSPKPWIYHTSNLASGVPARFSGSGSGTSYSLTISSMEAEDAATYYCQQYHSYPPTFGGGTKLEIK
modifications: cDNA of 1E11/1F2 V-genes (IgG1); cDNA of 1E11/1F2 V-genes (Kappa)
Turning to B2, the “reactivity with hC35 protein in Western Blot” value in the experiment with hC35 protein is reported as “reacted specifically”. For the same molecule, in the experiment with C35, the “immunohistochemical staining of human breast tumors” value was “can detect high levels of endogenous C35 expression” and the “immunohistochemical staining of normal breast tissue” value is “little or no staining”.
